From patent US20170022171A1, “2,5-DISUBSTITUTED CYCLOPENTANECARBOXYLIC ACIDS AND THEIR USE” (Bayer Pharma Aktiengesellschaft, priority 2014, published 2017)

Molecular target: T1, human macrophage elastase (HME/hMMP-12) (Homo sapiens, UniProt P39900)
T1 construct: 0.5 nM HME; purchased R&D Systems 917-MP
Experiment: In vitro HME inhibition test (standard or high-sensitivity)
Type: biochemical
Conditions: in some cases mean values
Protocol: The potency of the compounds according to the invention with respect to HME (MMP-12) is determined in an in vitro inhibition test. The HME-mediated amidolytic cleavage of a suitable peptide substrate leads to an increase in fluorescent light therein. The signal intensity of the fluorescent light is directly proportional to the enzyme activity. The active concentration of a test compound at which half the enzyme is inhibited (50% signal intensity of the fluorescent light) is reported as the IC50 value.
In a 384 hole microtiter plate, in a total test volume of 41 the test buffer (0.1 M HEPES pH 7.4, 0.15 M NaCl, 0.03 M CaCl2, 0.004 mM ZnCl2, 0.02 M EDTA, 0.005% Brij®), the enzyme (0.5 nM HME; from R&D Systems, 917-MP, autocatalytic activation according to the manufacturer's instructions) and the intramolecularly quenched substrate [5 μM Mca-Pro-Leu-Gly-Leu-Glu-Glu-Ala-Dap(Dnp)-NH2; Bachem, M-2670] are incubated in the absence and presence of the test substance (as a solution in DMSO) at 37° C. for two hours. The fluorescence intensity of the test mixtures is measured (excitation […], emission 393 nm). The IC50 values are ascertained by plotting the fluorescent light intensity against the active ingredient concentration.
In this case, an enzyme concentration ten times lower is used (final concentration, for example, 0.05 nM) in order to achieve an elevated test sensitivity. The incubation period chosen for the test is correspondingly longer (for example 16 hours).

T1 sequence (P39900 106-470): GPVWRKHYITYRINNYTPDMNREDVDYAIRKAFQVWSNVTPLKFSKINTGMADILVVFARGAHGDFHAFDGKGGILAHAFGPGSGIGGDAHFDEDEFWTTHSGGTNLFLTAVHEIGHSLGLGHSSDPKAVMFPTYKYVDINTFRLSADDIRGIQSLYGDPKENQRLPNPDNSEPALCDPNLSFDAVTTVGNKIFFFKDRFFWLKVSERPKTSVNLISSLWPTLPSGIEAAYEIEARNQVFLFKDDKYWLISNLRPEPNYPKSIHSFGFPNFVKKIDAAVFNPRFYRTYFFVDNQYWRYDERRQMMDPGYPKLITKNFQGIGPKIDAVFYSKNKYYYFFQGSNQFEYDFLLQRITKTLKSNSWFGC

IC50 [nM]	Compound
0.17	CCCCCCOc1ccc(C(=O)[C@H]2CC[C@@H](Cn3nnc4ccccc4c3=O)[C@@H]2C(=O)O)cc1 (racemic) [Example 6, (+/−)-(1RS,2RS,5SR)-2-[4-(Hexyloxy)benzoyl]-5-[(4-oxo-1,2,3-benzotriazin-3(4H)-yl)methyl]cyclopentanecarboxylic acid]
0.26	CCCCCOc1ccc(C(=O)[C@H]2CC[C@@H](Cn3nnc4ccccc4c3=O)[C@@H]2C(=O)O)cc1 (racemic) [Example 7, (+/−)-(1RS,2SR,5RS)-2-[(4-Oxo-1,2,3-benzotriazin-3(4H)-yl)methyl]-5-[4-(pentyloxy)benzoyl]cyclopentanecarboxylic acid]
0.045	O=C(O)[C@H]1[C@H](Cn2nnc3ccc(C(F)(F)F)cc3c2=O)CC[C@@H]1C(=O)c1ccc(OCc2cccc(Cl)c2)cc1 (racemic) [Example 21, (+/−)-(1RS,2RS,5SR)-2-{4-[(3-Chlorobenzyl)oxy]benzoyl}-5-{[4-oxo-6-(trifluoromethyl)-1,2,3-benzotriazin-3(4H)-yl]methyl}cyclopentanecarboxylic acid]
0.015	O=C(O)[C@H]1[C@H](Cn2nnc3ccc(C(F)(F)F)cc3c2=O)CC[C@@H]1C(=O)c1ccc(OCc2ccc(Cl)cc2)cc1 (racemic) [Example 24, (+/−)-(1RS,2RS,5SR)-2-{4-[(4-Chlorobenzyl)oxy]benzoyl}-5-{[4-oxo-6-(trifluoromethyl)-1,2,3-benzotriazin-3(4H)-yl]methyl}cyclopentanecarboxylic acid]
0.032	O=C(O)[C@H]1[C@H](Cn2nnc3ccc(C(F)(F)F)cc3c2=O)CC[C@@H]1C(=O)c1ccc(OCc2ccc(Cl)c(Cl)c2)cc1 (racemic) [Example 27, (+/−)-(1RS,2RS,5SR)-2-{4-[(3,4-Dichlorobenzyl)oxy]benzoyl}-5-{[4-oxo-6-(trifluoromethyl)-1,2,3-benzotriazin-3(4H)-yl]methyl}cyclopentanecarboxylic acid]
0.13	O=C(O)[C@H]1[C@H](Cn2nnc3ccc(C(F)(F)F)cc3c2=O)CC[C@@H]1C(=O)c1ccc(OCc2cccc(N3CCOC3=O)c2)cc1 (racemic) [Example 33, (+/−)-(1RS,2RS,5SR)-2-(4-{[3-(2-Oxo-1,3-oxazolidin-3-yl)benzyl]oxy}benzoyl)-5-{[4-oxo-6-(trifluoromethyl)-1,2,3-benzotriazin-3 (4H)-yl]methyl}cyclopentanecarboxylic acid]
0.13	O=C(O)[C@H]1[C@H](Cn2nnc3ccc(C(F)(F)F)cc3c2=O)CC[C@@H]1C(=O)c1ccc(OCCc2ccccc2)cc1 (racemic) [Example 36, (+/−)-(1RS,2SR,5RS)-2-{[4-Oxo-6-(trifluoromethyl)-1,2,3-benzotriazin-3(4H)-yl]methyl}-5-[4-(2-phenylethoxy)benzoyl]cyclopentanecarboxylic acid]
0.039	O=C(O)[C@H]1[C@H](Cn2nnc3ccc(C(F)(F)F)cc3c2=O)CC[C@@H]1C(=O)c1ccc(OCC2CCCC2)cc1 (racemic) [Example 43, (+/−)-(1RS,2RS,5SR)-2-[4-(Cyclopentylmethoxy)benzoyl]-5-{[4-oxo-6-(trifluoromethyl)-1,2,3-benzotriazin-3(4H)-yl]methyl}cyclopentanecarboxylic acid]
0.034	O=C(O)[C@H]1[C@H](Cn2nnc3ccc(C(F)(F)F)cc3c2=O)CC[C@@H]1C(=O)c1ccc(OCC2CCC2)cc1 (racemic) [Example 46, (+/−)-(1RS,2RS,5SR)-2-[4-(Cyclobutylmethoxy)benzoyl]-5-{[4-oxo-6-(trifluoromethyl)-1,2,3-benzotriazin-3(4H)-yl]methyl}cyclopentanecarboxylic acid]
0.14	O=C(O)[C@H]1[C@H](Cn2nnc3ccc(C(F)(F)F)cc3c2=O)CC[C@@H]1C(=O)c1ccc(OCC2CC2)cc1 (racemic) [Example 49, (+/−)-(1RS,2RS,5SR)-2-[4-(Cyclopropylmethoxy)benzoyl]-5-{[4-oxo-6-(trifluoromethyl)-1,2,3-benzotriazin-3(4H)-yl]methyl}cyclopentanecarboxylic acid]
0.036	O=C(O)[C@H]1[C@H](Cn2nnc3ccc(C(F)(F)F)cc3c2=O)CC[C@@H]1C(=O)c1ccc(OCCC2CCCCC2)cc1 (racemic) [Example 50, (+/−)-(1RS,2RS,5SR)-2-[4-(2-Cyclohexylethoxy)benzoyl]-5-{[4-oxo-6-(trifluoromethyl)-1,2,3-benzotriazin-3(4H)-yl]methyl}cyclopentanecarboxylic acid]
0.027	O=C(O)[C@H]1[C@H](Cn2nnc3ccc(C(F)(F)F)cc3c2=O)CC[C@@H]1C(=O)c1ccc(OCCC2CCCC2)cc1 (racemic) [Example 53, (+/−)-(1RS,2RS,5SR)-2-[4-(2-Cyclopentylethoxy)benzoyl]-5-{[4-oxo-6-(trifluoromethyl)-1,2,3-benzotriazin-3(4H)-yl]methyl}cyclopentanecarboxylic acid]
0.028	CCCCCCOc1ccc(C(=O)[C@H]2CC[C@@H](Cn3nnc4ccc(C(F)(F)F)cc4c3=O)[C@@H]2C(=O)O)cc1 (racemic) [Example 57, (+/−)-(1RS,2RS,5SR)-2-[4-(Hexyloxy)benzoyl]-5-{[4-oxo-6-(trifluoromethyl)-1,2,3-benzotriazin-3(4H)-yl]methyl}cyclopentanecarboxylic acid]
0.015	CCCCCOc1ccc(C(=O)[C@H]2CC[C@@H](Cn3nnc4ccc(C(F)(F)F)cc4c3=O)[C@@H]2C(=O)O)cc1 (racemic) [Example 63, (+/−)-(1RS,2SR,5RS)-2-{[4-Oxo-6-(trifluoromethyl)-1,2,3-benzotriazin-3(4H)-yl]methyl}-5-[4-(pentyloxy)benzoyl]cyclopentanecarboxylic acid]
0.094	CCCOc1ccc(C(=O)[C@H]2CC[C@@H](Cn3nnc4ccc(C(F)(F)F)cc4c3=O)[C@@H]2C(=O)O)cc1 (racemic) [Example 69, (+/−)-(1RS,2SR,5RS)-2-{[4-Oxo-6-(trifluoromethyl)-1,2,3-benzotriazin-3(4H)-yl]methyl}-5-(4-propoxybenzoyl)cyclopentanecarboxylic acid]
0.17	O=C(O)[C@H]1[C@H](Cn2nnc3ccc(C(F)(F)F)cc3c2=O)CC[C@@H]1C(=O)c1ccc(SCc2ccccc2)cc1 (racemic) [Example 73, (+/−)-(1RS,2RS,5SR)-2-[4-(Benzylsulphanyl)benzoyl]-5-{[4-oxo-6-(trifluoromethyl)-1,2,3-benzotriazin-3(4H)-yl]methyl}cyclopentanecarboxylic acid]
0.1	O=C(O)[C@H]1[C@H](Cn2nnc3ccc(C(F)(F)F)cc3c2=O)CC[C@@H]1C(=O)c1ccc(SCc2cccc(Cl)c2)cc1 (racemic) [Example 76, (+/−)-(1RS,2RS,5SR)-2-{4-[(3-Chlorobenzyl)sulphanyl]benzoyl}-5-{[4-oxo-6-(trifluoromethyl)-1,2,3-benzotriazin-3(4H)-yl]methyl}cyclopentanecarboxylic acid]
0.12	O=C(O)[C@H]1[C@H](Cn2nnc3ccc(C(F)(F)F)cc3c2=O)CC[C@@H]1C(=O)c1ccc(SCCc2ccccc2)cc1 (racemic) [Example 82, (+/−)-(1RS,2SR,5RS)-2-{[4-Oxo-6-(trifluoromethyl)-1,2,3-benzotriazin-3(4H)-yl]methyl}-5-{4-[(2-phenylethyl)sulphanyl]benzoyl}cyclopentanecarboxylic acid]
0.22	O=C(O)[C@H]1[C@H](Cn2nnc3ccc(C(F)(F)F)cc3c2=O)CC[C@@H]1C(=O)c1ccc(SCC2CCCCC2)cc1 (racemic) [Example 85]
0.055	Cc1ccc2nnn(C[C@@H]3CC[C@H](C(=O)c4ccc(OCc5ccc(F)cc5)cc4)[C@H]3C(=O)O)c(=O)c2c1 (racemic) [Example 94, (+/−)-(1RS,2RS,5SR)-2-{4-[(4-Fluorobenzyl)oxy]benzoyl}-5-[(6-methyl-4-oxo-1,2,3-benzotriazin-3(4H)-yl)methyl]cyclopentanecarboxylic acid]
0.66	Cc1ccc2nnn(C[C@@H]3CC[C@H](C(=O)c4ccc(OCCc5ccccc5)cc4)[C@H]3C(=O)O)c(=O)c2c1 (racemic) [Example 112, (+/−)-(1RS,2SR,5RS)-2-[(6-Methyl-4-oxo-1,2,3-benzotriazin-3(4H)-yl)methyl]-5-[4-(2-phenylethoxy)benzoyl]cyclopentanecarboxylic acid]

Compound	IC50 [nM]
CCCCOc1ccc(C(=O)[C@H]2CC[C@@H](Cn3nnc4ccccc4c3=O)[C@@H]2C(=O)O)cc1 (racemic) [Example 10, (+/−)-(1RS,2RS,5SR)-2-(4-Butoxybenzoyl)-5-[(4-oxo-1,2,3-benzotriazin-3 (4H)-yl)methyl]cyclopentanecarboxylic acid]	0.36
CCCCOc1ccc(C(=O)[C@H]2CC[C@@H](Cn3nnc4ccc(C(F)(F)F)cc4c3=O)[C@@H]2C(=O)O)cc1 (racemic) [Example 66, (+/−)-(1RS,2RS,5SR)-2-(4-Butoxybenzoyl)-5-{[4-oxo-6-(trifluoromethyl)-1,2,3-benzotriazin-3 (4H)-yl]methyl}cyclopentanecarboxylic acid]	0.043
CC(C)COc1ccc(C(=O)[C@H]2CC[C@@H](Cn3nnc4ccc(C(F)(F)F)cc4c3=O)[C@@H]2C(=O)O)cc1 (racemic) [Example 72, (+/−)-(1RS,2RS,5SR)-2-(4-Isobutoxybenzoyl)-5-{[4-oxo-6-(trifluoromethyl)-1,2,3-benzotriazin-3(4H)-yl]methyl}cyclopentanecarboxylic acid]	0.13
